Experimental data published in patent US7855194B2, “Pyrimidine, quinazoline, pteridine and triazine derivatives” (Hoffmann-La Roche Inc., priority 2006, dated 2010).

The compounds below were run against T1, human subtype 5 somatostatin receptor (Homo sapiens, UniProt P35346) (assay: SSTR5 radioligand binding assay (125I-labeled 11-Tyr somatostatin-14 tracer, membranes of transfected CHO cells)). Conditions: CHO cell membranes, Ki calculated from IC50 by Cheng-Prussoff equation.
T1 construct: host or cells: CHO cells, stably transfected; membranes prepared from them
T1 sequence (P35346 whole entry): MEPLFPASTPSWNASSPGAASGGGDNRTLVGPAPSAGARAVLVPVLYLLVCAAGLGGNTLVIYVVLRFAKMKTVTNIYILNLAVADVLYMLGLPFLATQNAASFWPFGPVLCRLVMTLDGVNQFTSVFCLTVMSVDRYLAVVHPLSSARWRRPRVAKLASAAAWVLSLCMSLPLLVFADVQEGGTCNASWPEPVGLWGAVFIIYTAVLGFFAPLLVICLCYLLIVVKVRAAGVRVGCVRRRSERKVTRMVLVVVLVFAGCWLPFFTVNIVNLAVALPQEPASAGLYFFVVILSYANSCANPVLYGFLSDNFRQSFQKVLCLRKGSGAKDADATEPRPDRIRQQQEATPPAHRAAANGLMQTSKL
Procedure: A CHO cell line stably transfected with a plasmid encoding the human subtype 5 somatostatin receptor (GenBank accession number D16827) was obtained from Euroscreen. Cells were cultured and used for binding and functional assays.
Membranes of these cells were prepared by sonication in the presence of protease inhibitors and subsequent fractionating centrifugation. The protein concentration in the membrane preparation was determined using a commercial kit (BCA kit, Pierce, USA). Membranes were stored at −80° C. until use. After thawing, membranes were diluted in assay buffer (50 mM Tris-HCl at pH 7.4, 5 mM MgCl2 and 0.20% BSA) and subjected to dounce homogenization.
For binding studies, 0.1 mL membrane suspension, corresponding to app. 6×10^−15 mol receptor, was incubated for 1 h at room temperature with 0.05 nM ^125I-labeled tracer (11-Tyr somatostatin-14, Perkin-Elmer) and either test compounds in varying concentrations or, for the determination of non-specific binding, 0.001 mM non-labeled somatostatin-14. The incubation was stopped by filtration through GF/B glassfiber filters and washing with ice-cold wash buffer (50 mM Tris-HCl at pH 7.4). The bound radioactivity was measured after application of a scintillation cocktail (Microscint 40) and expressed as disintegrations per minute (dpm).
The receptor concentration was determined in a prior saturation experiment where a fixed, arbitrary amount of membranes was incubated with a concentration range of radio-labeled tracer. This allows estimating the total number of specific binding sites per amount of protein (i.e., Bmax), typically between 1 and 5 pmol/mg.
The concentration of the test compound required to result in half maximal inhibition of binding of the radio-labeled tracer (IC50) was estimated from a concentration-versus-dpm graph. The binding affinity (Ki) was calculated from the IC50 by applying the Cheng-Prussoff equation for single binding sites.

SMILES | Ki [nM]
CCOc1cc(CN2CCC(Nc3nc(N)c4cc(C)ccc4n3)CC2)ccc1OC [Example 8, N^2-[1-(3-Ethoxy-4-methoxy-benzyl)-piperidin-4-yl]-6-methyl-quinazoline-2,4-diamine] | 490
CCOc1cc(CN2CCC(Nc3ncc(C#N)c(N)n3)CC2)cc(OCOC)c1I [Example 137, 4-amino-2-[1-(3-ethoxy-4-iodo-5-methoxymethoxy-benzyl)-piperidin-4-ylamino]-pyrimidine-5-carbonitrile] | 6.4
CCOc1cc(CN2CCC(Nc3ncc(-c4ccc(OC)cc4)cn3)CC2)ccc1Cl [Example 161, [1-(4-chloro-3-ethoxy-benzyl)-piperidin-4-yl]-[5-(4-methoxy-phenyl)-pyrimidin-2-yl]-amine] | 31
